The values below come from US8673652B2, “Immunoassay with extended detection window” (priority 2010, dated 2014).

Data set [1] has as its system polyclonal antibody raised against zolpidem analogue derivatised at the 4'-phenyl ring coupled to BTG. In words: Competitive ELISA for zolpidem (antibody specificity and sensitivity). The data set is classed as binding, sheep. The following applies: for IC50 / IC50 (ng/ml): competitive ELISA, hapten-HRP conjugate, absorbance at 450 nm; for % CR = percentage cross-reactivity based on 100% specificity to zolpidem: relative to zolpidem = 100%. How it is done: Analogues of zolpidem derivatised at the 4′-phenyl ring were coupled by way of a crosslinker to bovine thyroglobulin (BTG). The resulting immunogens were administered separately to adult sheep on a monthly basis to provide target-specific polyclonal antisera. IgG was extracted from the antisera via caprylic acid/ammonium sulphate precipitation of immunoglobulin. Microtitre plates were coated with antibody (125 μl/well) in coating buffer (10 mM Tris pH 8.5) at 37° C. for 2 h. The plates were then washed 4 times over 10 mins with working strength TBST. 50 μl of sample/standard (zolpidem, Sequioa SRP00500z; alpidem, TRC A575560; zaleplon, Sequioa SRP00300z; zopiclone, Sequioa SRP02000z; zolpidem Carboxylic Acid, Randox LK865 and zolpidem carboxylic acid, Randox LK855) was added to the appropriate wells in triplicate, followed by 75 μl of hapten-HRP conjugate and incubated at 25° C. for 1 h. The plates were then washed and 125 μl of TMB (Randox, 4380-15) was added to each well and left at room temperature for 20 mins in the dark. The reaction was stopped using 125 μl of 0.2M sulphuric acid. The absorbances were read at 450 nm with an ELISA microplate reader (BIO-TEK Instruments, Elx800) and the means calculated. Antibody specificity and sensitivity were then determined.
Competitive ELISA results in Table 1 and FIG. 3 highlight the specificity of the antibody of the disclosure towards zolpidem and cross-reactivity towards 4-[3-(2-N,N-dimethylamino-2-oxoethyl)-6-methylimidazo[1,2-a]pyridin-2-yl]benzoic acid. […] The disclosure, through its unique immunogens and antibodies, thus enables methods and kits able to detect and determine zolpidem and/or 4-[3-(2-N,N-dimethylamino-2-oxoethyl)-6-methylimidazo[1,2-a]pyridin-2-yl]benzoic acid with high sensitivity.

For data set [2] the following is noted: cited from earlier work.

Converted amounts (≈) assume the structure as drawn.

Consider `Cc1ccc(-c2nc3ccc(C)cn3c2CC(=O)N(C)C)cc1` [Zolpidem, N,N-dimethyl-2-[6-methyl-2-(4-methylphenyl)imidazo[1,2-a]pyridin-3-yl]acetamide], for which, in data set [1], the IC50 (usually the midpoint of a concentration-inhibition curve) turned out to be 0.63 ng/mL (≈ 2.05 nM) and the “% CR = percentage cross-reactivity based on 100% specificity to zolpidem” value (“% CR = percentage cross-reactivity based” for short) is 100%. The half-life (usually the time needed for the level to fall by half in the phase considered) in data set [2] (upon ingestion) is 1.5 to 3 h.
For the compound `CN1CCN(C(=O)OC2c3nccnc3C(=O)N2c2ccc(Cl)cn2)CC1` (centres unmarked) [Zopiclone, zopiclone], in data set [1], the “IC50 (ng/ml)” value is recorded as >>50 ng/ml and the “% CR = percentage cross-reactivity based” value is given as <<1.26%.
For `Cc1ccc(-c2nc3ccc(C(=O)O)cn3c2CC(=O)N(C)C)cc1` [Hapten M2, 3-(2-N,N-dimethylamino-2-oxoethyl)-2-(4-methylphenyl)imidazo[1,2-a]pyridin-6-yl carboxylic acid], in data set [1], the “IC50” value was above 500 ng/mL and the “% CR = percentage cross-reactivity based” value is reported as below 0.13%.
On to `Cc1ccc2nc(-c3ccc(C(=O)O)cc3)c(CC(=O)N(C)C)n2c1` [Hapten M1, 4-[3-(2-N,N-dimethylamino-2-oxoethyl)-6-methylimidazo[1,2-a]pyridin-2-yl]benzoic acid], for which, in data set [1], the “IC50” value was found to be 3.33 ng/mL (≈ 9.87 nM) and the “% CR = percentage cross-reactivity based” value came to 18.6%. The “share of metabolite produced by cytochrome P450 mediated metabolism of zolpidem” value in data set [2] (metabolism mediated by cytochrome P450) was “more than 80%”.
As for `CCCN(CCC)C(=O)Cc1c(-c2ccc(Cl)cc2)nc2ccc(Cl)cn12` [Alpidem, alpidem], in data set [1], the “IC50 (ng/ml)” value is on record as >>50 ng/ml and the “% CR = percentage cross-reactivity based” value is given as <<1.26%.
The like results for `CCN(C(C)=O)c1cccc(-c2ccnc3c(C#N)cnn23)c1` [Zaleplon, zaleplon] were, in that order, >>50 ng/ml and <<1.26%.
